Laboratory results published in patent US12286439B2, “Inhibitors of ERK nuclear translocation” (Yeda Research and Development Co. Ltd., priority 2018, dated 2025).

What was measured:
Assay type in all cases: cell-based
[1] = tested on: A2185 and A2352 cells; assay: Viability assay (methylene blue), two BRAF melanoma cells; conditions: for viability at 10 µM / cell viability (percentage of DMSO control): active below 40%, moderate below 80%, not active above 80%; for viability at 10 µM: read-out: cell viability (percentage of DMSO control); for activity in SAR summary of FIGS. 10A-10C (cell viability): comparison with Compound Z2 or named analog; for cell viability at lower concentration: 3 μM; for cell viability, dose response: 0.1-10 μM
Description: FIGS. 10A, 10B and 10C present data from screening the 20 analogs of Compound Z2 (“C-compounds”) showing three particularly active anti-proliferative compounds. […] A2185 and A2352 cells were grown in 1% FCS containing DMSO (0.1%), EPE peptide, Compound Z56, Compound Z2 or C-compounds (10 μM), for 72 hours. Compounds were categorized according to activity: (1) active, below 40%; (2) moderate activity, below 80%; (3) not active, above 80%. […] A2185 and A2352 cells were grown in 1% FCS containing DMSO (0.1%), EPE peptide (10 μM), compounds Z56, Z2 or selected C-compounds (3 μM), for 72 hours. Empty squares/circles represent individual data points of proliferation. Full squares/circles indicate average proliferation of 2 independent experiments in triplicate±SE. Bold horizontal line defines arbitrary activity threshold of activity below 40%. FIG. 10C presents dose response curves of active C-compounds compounds. A2185 and A2352 were grown in 1% FCS media containing DMSO (0.1%), EPE peptide, Z56, Z2 (10 μM) or compounds C17, C22 and C23 (0.1-10 μM), for 72 hours. […] Cell viability was measured by staining with methylene blue. Data presented as percentage of DMSO control. Bar graphs represent average of 2 independent experiments done in triplicates ±SE.
FIG. 13 presents a graph showing the effect of analogs of Compound C17 (“D-compounds”) on cell viability at a concentration of 10 μM. A2185 and A2352 cells were grown in 1% FCS media containing DMSO (0.1%) EPE peptide (10 μM), Compounds Z56, Z2, C17 (10 μM) as controls, and D-Compounds (10 μM), for 72 hours. Viable cells were measured by staining with methylene blue. Bar graphs represent average of 2 independent experiments done in triplicates. Data presented as percentage of DMSO proliferation ±standard error.
FIG. 14 presents a graph showing the effect of analogs of Compound C17 (“D-compounds”) on cell viability at a concentration of 1 μM. A2185 and A2352 cells were grown in 1% FCS media containing DMSO (0.1%), EPE peptide (10 μM), Compounds Z56, Z2 and C17 (1 and 10 μM) as controls, and D-compounds (1 μM), for 72 hours. Viable cells were measured by staining with methylene blue. Bar graphs represent average of 2 independent experiments done in triplicates. Data presented as percentage of DMSO proliferation ±standard error.
(§1) Cells were seeded at low confluence into 24, 48 or 96-well plates in complete medium. After 24 hours, medium was replaced by 1% FCS (fetal calf serum) containing appropriate treatments. Fresh medium containing the same agents was replaced every day. After 72 or 96 hours of treatment, cells were fixed with 4% formaldehyde overnight at 23° C., washed once with 0.1 M borate buffer (pH 8.5) for 10 minutes, and stained with of 1% methylene blue in 0.1 M borate buffer (pH 8.5) for 30 minutes. Excess stain was washed out with distilled water. Color was extracted by adding 0.1 M HCl (3 hours, 23° C.), and absorbance measured at 595 nm in an ELISA reader. For time course experiments, attached cells were fixed and measured at 0, 24, 48, 72 and 96 hours. For dose-response experiments, cells were treated with indicated concentrations of reagent, fixed and stained after 72 hours as above.
The ability of the selected compounds to reduce cell viability of two BRAF melanoma cells (A2185 and A2352) was evaluated. Initially, all compounds were assayed at a relatively high concentration of 10 μM.

[2] = tested on: ERK1/2 nuclear translocation; assay: Determination of ERK1/2 localization by fluorescence microscopy after TPA stimulation; conditions: 10 μM, 2 hours; TPA 100 nM, 15 minutes; A2185 and A2352 cells
Description: Determination of Protein Localization by Fluorescence Microscopy:
Indicated cells were seeded on coverslips (coated with 0.001% w/v poly-L-lysine or not, depending on the cell line) at 50% confluency. After the indicated treatment, cells were fixed in 4% paraformaldehyde/PBS for 20 minutes on an ice surface, permeabilized with 0.1% Triton X-100/PBS for 5 minutes at 23° C., then blocked in 2% BSA/PBS for 30 minutes at 23° C. The fixed cells were sequentially incubated with appropriate antibodies (in 2% BSA/PBS, 1.5 hour), washed 3 times with PBS^−/−, and followed by incubation with either Cy-2-conjugated or rhodamine-conjugated secondary antibodies (1:200) and with DAPI ([…]; 1:100) in 2% BSA/PBS for 45 minutes. Slides were analyzed and photographed by a fluorescence microscope (Olympus BX51, ×40). Background correction, and contrast adjustment of raw data images were performed using Photoshop (Adobe, CA, USA).
The effect of Z56 was compared with that of the inhibitory effect of EPE peptide on nuclear translocation of ERK1/2.
The effects of the compounds on ERK1/2 nuclear translocation were evaluated in three cell lines (HeLa cells and two melanoma cell lines, A2185 and A2352), by treating the cells with each compound for two hours, and determining nuclear translocation using fluorescent anti-ERK antibodies, according to procedures described hereinabove.

[3] = tested on: Panc-1, AsPC-1, CFPAC-1, MIA PaCa-2, Capan-1, Capan-2 and BxPC-3 pancreatic cancer cells; assay: Viability assay (methylene blue), pancreatic cancer cell lines
Description: FIGS. 6A and 6B present data showing that Compound Z56 prevents proliferation of pancreatic cancer cells. […] Panc-1, AsPC-1, CFPAC-1, Mia PaCa-2, Capan-1, Capan-2 (Ras-transformed) and BxPC-3 (Ras-wild type) pancreatic cancer cells were treated with either EPE peptide (10 μM; middle bars) or Z56 (3 μM; right bars) or DMSO control (0.1%; left bars) in 1% FCS for 72 hours. […] Panc-1, AsPC-1, BxPC-3 and Mia PaCa-2 cells grown in 1% FCS medium containing either EPE peptide (10 μM), 56 (3 μM), PLX4032 (1 μM), PD184352 (5 μM) or DMSO control (0.1%). The graphs present the kinetics of cell proliferation at the indicated times after the treatment started. Quantification of all viable cells was done by methylene blue and repeated 3 times in triplicates. All results presented as a fold change of the initial cell number and represent averages ±SE.
as §1
Activating mutations in Ras are found in more than 95% of pancreatic cancers where signaling through both Raf and Akt pathway drives cancer progression [Campbell et al., Cancer Res 2007, 67:2098-2106]. However, no effective treatments that target this mutant protein have reached the clinic to date, and pancreatic ductal adenocarcinoma remains an almost universally fatal disease [Bryant et al., Trends Biochem Sci 2014, 39:91-100]. Therefore, treating these pancreatic cancer cells downstream of Ras, without overactivating the Akt pathway, should be at least partially beneficial. The effect of Compound Z56 (and EPE peptide) on cell viability of Ras-transformed (and Ras-wild type) pancreatic cancer cells was determined, using a variety of cell lines.
The effects of Compound Z56 on the viability of pancreatic cancer cell lines at various times after treatment was compared with those of PLX4032 (a B-Raf inhibitor) and PD184352 (a MEK1/2 inhibitor).

Row | Compound | activity in SAR summary of FIGS. 10A-10C (cell viability) [1] | cell viability (percentage of DMSO control) ([1]; 10 μM, 72 hours, 1% FCS) | also measured
1 | CCOC(=O)c1ccc(NC2C=CS(=O)(=O)C2)cc1 (stereo not drawn) [Compound C1] | lower activity (relative to Compound Z2) |  | viability at 10 µM ([1]; 10 μM, 72 hours, 1% FCS): < 40%
2 | O=C(NC1C=CS(=O)(=O)C1)c1ccccc1 (stereo not drawn) [Compound C2] | less active |  | viability at 10 µM ([1]; 10 μM, 72 hours, 1% FCS): < 80%
3 | O=C(CCc1ccccc1)OC1C=CS(=O)(=O)C1 (stereo not drawn) [Compound C3] |  |  | viability at 10 µM ([1]; 10 μM, 72 hours, 1% FCS): < 80%
4 | O=S1(=O)C=CC(O)C1 (stereo not drawn) [Compound C4] |  | did not exhibit significant activity | 
5 | O=S1(=O)CCC(Oc2ccccc2)C1 (stereo not drawn) [Compound C5] |  |  | viability at 10 µM ([1]; 10 μM, 72 hours, 1% FCS): < 80%
6 | O=S1(=O)C=CC2ON=C(c3cc(Cl)cc(Cl)c3)C21 (stereo not drawn) [Compound C6] | inactive | did not exhibit significant activity | 
7 | O=S1(=O)CCC(OCc2ccccc2)C1 (stereo not drawn) [Compound C8] | less active | did not exhibit significant activity | 
8 | Cc1ccc(C(=O)OC2CCS(=O)(=O)C2)cc1 (stereo not drawn) [Compound C11] | inactive | did not exhibit significant activity | 
9 | O=C(Nc1ccccc1)OC1C=CS(=O)(=O)C1 (stereo not drawn) [Compound C12] | less active | did not exhibit significant activity | 
10 | CC(C)OC(=O)c1ccc(NC(=O)CC2C=CS(=O)(=O)C2)cc1 (stereo not drawn) [Compound C14] | lower activity (relative to Compound Z2) | did not exhibit significant activity | 
11 | O=C(OC1CCCS(=O)(=O)C1)c1ccc(F)cc1 (stereo not drawn) [Compound C15] | inactive | did not exhibit significant activity | 
12 | O=C(OC1CCS(=O)(=O)C1)c1ccnc(OCc2ccccc2)c1 (stereo not drawn) [Compound C16] |  | did not exhibit significant activity | 
13 | CS(=O)(=O)CCOC(=O)c1cccc(Br)c1 [Compound C19] | inactive | did not exhibit significant activity | 
14 | Cc1ccccc1OC1CCS(=O)(=O)C1 (stereo not drawn) [Compound C20] | lower activity (relative to Compound Z2) | did not exhibit significant activity | 
15 | Cc1ccc(OC2CCS(=O)(=O)C2)cc1 (stereo not drawn) [Compound C21] | lower activity (relative to Compound Z2) | did not exhibit significant activity | 
16 | O=C(OC1CS(=O)(=O)CC1Br)c1ccccc1 (stereo not drawn) [Compound C22] | far more active than Compound C6 |  | cell viability at lower concentration ([1]; 72 hours, 1% FCS): at least as potent as Compound Z2; viability at 10 µM ([1]; 10 μM, 72 hours, 1% FCS): < 40%; cell viability, dose response ([1]; 72 hours, 1% FCS): dose dependent manner; nuclear accumulation of ERK1/2 upon TPA stimulation [2]: inhibited
17 | O=S1(=O)C=CC2ON=C(c3c(Cl)cccc3Cl)C21 (stereo not drawn) [Compound C23] |  |  | cell viability at lower concentration ([1]; 72 hours, 1% FCS): at least as potent as Compound Z2; viability at 10 µM ([1]; 10 μM, 72 hours, 1% FCS): < 40%; cell viability, dose response ([1]; 72 hours, 1% FCS): dose dependent manner; nuclear accumulation of ERK1/2 upon TPA stimulation [2]: inhibited
18 | O=C(OC1CCCS(=O)(=O)C1)c1ccccc1F (stereo not drawn) [Compound C31] | inactive | did not exhibit significant activity | 
19 | Cn1ccc2c(C(=O)OC3CCS(=O)(=O)C3)cccc21 (stereo not drawn) [Compound C32] |  | did not exhibit significant activity | 
20 | O=S1(=O)C=CC2ON=C(c3cccnc3)C21 (stereo not drawn) [Compound D13] |  |  | anti-viability activity ([1]; 10 μM, 72 hours, 1% FCS): higher activity than did Compound D7
21 | O=C(NOCC1CC1)c1ccc(F)c(F)c1Nc1ccc(I)cc1Cl [PD184352] |  |  | viability, time course ([3]; 5 μM, all tested cell lines (Panc-1, AsPC-1, BxPC-3, Mia PaCa-2)): reduced the viability
22 | CCCS(=O)(=O)Nc1ccc(F)c(C(=O)c2c[nH]c3ncc(-c4ccc(Cl)cc4)cc23)c1F [PLX4032] |  |  | proliferation, time course ([3]; 1 μM, Ras-mutated AsPC-1 cells): to some extent; viability, time course ([3]; 1 μM, other Ras-transformed pancreatic cancer cells (Panc-1, Mia PaCa-2)): not affecting the viability
